For experiment [1], the system named is H1568 NSCLC cell line. The experiment in a line: Cellular growth inhibition (CellTiter Glo viability assay). The experiment is classed as cell-based. The note with it: Homo sapiens, NCI-H1568, 96 h; read-out: GI50 this paper. For orientation: ATP-based viability assays read luminescence as a measure of living cells.
In experiment [2] the test system is H2887 NSCLC cell line. The description is as above. In kind it is cell-based. The note with it: Homo sapiens, NCI-H2887, 96 h; read-out: GI50 this paper.
Experiment [3] concerns H322 NSCLC cell line. The experiment is described as above. The experiment is classed as cell-based. The note with it: Homo sapiens, NCI-H322, 96 h; read-out: GI50 this paper.
In experiment [4] the test system is HCC1359 NSCLC cell line. The description is as above. The note with it: Homo sapiens, 96 h; read-out: GI50 this paper. The experiment is classed as cell-based.
The subject of experiment [5] is LCLC103H NSCLC cell line. Described as above. In kind it is cell-based. The note with it: Homo sapiens, LCLC-103H, 96 h; read-out: GI50 this paper.
In experiment [6] the test system is BT-549 breast cancer cell line. The experiment is described as above. The experiment is classed as cell-based. The note with it: Homo sapiens, BT-549, 96 h; read-out: GI50 this paper.
In experiment [7] the test system is H157 NSCLC cell line. The conditions noted are these: dasatinib, cited from earlier work.
The subject of experiment [8] is H1648 NSCLC cell line. The conditions noted are these: dasatinib, cited from earlier work.
In experiment [9] the test system is H2077 NSCLC cell line. The note with it: dasatinib, cited from earlier work.
Experiment [10] relates to H460 NSCLC cell line. The note with it: dasatinib, cited from earlier work.
For experiment [11], the system named is HCC1359 NSCLC cell line. The note with it: dasatinib, cited from earlier work.
For experiment [12], the system named is LCLC103H NSCLC cell line. The conditions noted are these: dasatinib, cited from earlier work.
Experiment [13] deals with LouNH91 NSCLC cell line. The conditions noted are these: dasatinib, cited from earlier work.
In experiment [14] the test system is HCC4006 NSCLC cell line. The conditions noted are these: dasatinib, cited from earlier work.
The test system of experiment [15] is HCC78 NSCLC cell line. The note with it: dasatinib, cited from earlier work.
Experiment [16] deals with H322M NSCLC cell line. The conditions noted are these: dasatinib, cited from earlier work.
The test system of experiment [17] is HOP62 NSCLC cell line. The conditions noted are these: dasatinib, cited from earlier work.
The test system of experiment [18] is HCC2279 NSCLC cell line. The conditions noted are these: dasatinib, cited from earlier work.
Experiment [19] has as its system PC9 NSCLC cell line. The conditions noted are these: dasatinib, cited from earlier work.
Experiment [20] relates to MCF7 breast cancer cell line. The note with it: dasatinib, Huang et al. 2007, read-out: GI50 literature; cited from earlier work.
Experiment [21] deals with 23 tested kinases. The conditions noted are these: IVKA; cited from earlier work.
The target of experiment [22] is MET (Homo sapiens, UniProt P08581). As to the kind of experiment: KinAffinity target profiling. The experiment is classed as binding. On the set-up: endogenous in cells; host or cells: PC9 cells (lysate). The note with it: PC9 cell extract, read-out: KD_free. On the procedure:
For in vitro association experiments 4×10^8 PC9 cells were lysed in buffer containing 20 mM HEPES pH 7.5, 400 mM NaCl. 0.25% Triton X-100, 1 mM DTT, 1.5 mM MgCl2, 0.5 mM ZnCl2, 0.5 mM EDTA, 0.5 mM EGTA, 1600 U/ml Benzonase plus additives (10 μg/ml aprotinin, 10 μg/ml leupeptin, 1 mM PMSF, 1 mM Na3VO4, 10 mM NaF). After centrifugation the supernatant was adjusted to 1 M NaCl, filtered through a 0.45 μm celluloseacetate filter and subjected to KinAffinity™ beads representing several different broad-spectrum kinase inhibitors immobilized on Sepharose beads. For each in vitro association experiment 750 μl cell extract (4 mg/ml) were incubated with 30 μl KinAffinity™ beads for 2.5 h at 4° C. […] The extracted peptides were derivatized for quantitative mass spectrometry using the TMT 6-plex reagent according to the manufactures instructions and were subsequently combined for mass spectrometric analysis.
Mass spectrometric analysis of the labeled and combined peptide fractions was carried out by on-line nanoLC-MS/MS. […] The resulting fragmentation spectra were also recorded in the linear ion trap.
Regarding the search parameters, the minimal peptide length was set to 6 amino acids, trypsin was selected as proteolytic enzyme and maximally 2 missed cleavage sites were allowed. […] The intensities of the TMT reporter ions were read from the msm files. […]

Where [23] appears, read: Sos et al. 2009, read-out: GI50 literature.

Where two headings read alike, the source gives them in different places.

By GI50 is commonly meant the concentration giving 50% growth inhibition.

Sequence of MET (P08581 25-1390): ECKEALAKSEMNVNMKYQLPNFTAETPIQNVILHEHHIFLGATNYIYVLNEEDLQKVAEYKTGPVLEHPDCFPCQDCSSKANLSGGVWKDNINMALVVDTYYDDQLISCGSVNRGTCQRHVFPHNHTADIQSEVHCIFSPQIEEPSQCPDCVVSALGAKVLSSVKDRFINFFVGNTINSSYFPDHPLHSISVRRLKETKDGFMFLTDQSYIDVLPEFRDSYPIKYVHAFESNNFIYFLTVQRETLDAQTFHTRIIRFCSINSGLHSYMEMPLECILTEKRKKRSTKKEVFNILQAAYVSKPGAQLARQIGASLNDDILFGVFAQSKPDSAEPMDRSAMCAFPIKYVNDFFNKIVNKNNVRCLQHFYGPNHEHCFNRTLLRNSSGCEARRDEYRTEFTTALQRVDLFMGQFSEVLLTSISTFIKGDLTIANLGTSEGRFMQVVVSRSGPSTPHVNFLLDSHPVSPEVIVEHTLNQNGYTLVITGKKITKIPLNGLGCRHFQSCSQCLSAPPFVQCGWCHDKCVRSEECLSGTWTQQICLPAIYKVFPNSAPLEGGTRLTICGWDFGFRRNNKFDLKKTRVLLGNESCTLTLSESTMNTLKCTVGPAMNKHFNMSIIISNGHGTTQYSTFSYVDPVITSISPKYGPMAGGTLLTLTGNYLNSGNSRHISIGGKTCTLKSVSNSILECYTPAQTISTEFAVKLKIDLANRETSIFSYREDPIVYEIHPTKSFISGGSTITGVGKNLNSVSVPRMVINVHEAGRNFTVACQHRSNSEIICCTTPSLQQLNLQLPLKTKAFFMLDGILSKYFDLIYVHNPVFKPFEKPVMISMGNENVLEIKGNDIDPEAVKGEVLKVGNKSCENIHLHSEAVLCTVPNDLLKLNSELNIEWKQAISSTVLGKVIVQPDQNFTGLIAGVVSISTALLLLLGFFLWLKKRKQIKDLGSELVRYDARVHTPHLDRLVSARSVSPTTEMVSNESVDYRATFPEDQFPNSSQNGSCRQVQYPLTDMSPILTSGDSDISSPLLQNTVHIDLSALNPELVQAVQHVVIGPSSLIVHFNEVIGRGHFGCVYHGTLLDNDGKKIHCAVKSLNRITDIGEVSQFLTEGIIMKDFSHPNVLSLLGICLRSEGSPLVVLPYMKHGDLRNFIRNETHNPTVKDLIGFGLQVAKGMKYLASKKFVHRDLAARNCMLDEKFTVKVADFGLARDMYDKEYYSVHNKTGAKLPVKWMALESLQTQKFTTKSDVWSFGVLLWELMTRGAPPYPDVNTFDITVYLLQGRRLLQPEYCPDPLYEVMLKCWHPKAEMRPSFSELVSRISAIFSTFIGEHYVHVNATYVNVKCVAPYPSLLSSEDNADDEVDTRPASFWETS

For the compound `Cc1nc(Nc2ncc(C(=O)Nc3c(C)cccc3Cl)s2)cc(N2CCN(CCO)CC2)n1` [dasatinib, N-(2-chloro-6-methylphenyl)-2-[[6-[4-(2-hydroxyethyl)piperazin-1-yl]-2-methylpyrimidin-4-yl]amino]-1,3-thiazole-5-carboxamide], the GI50 is 5.44 µM in [1]; 0.176 µM in experiment [2]; 2.1 µM in [3]; 0.52 µM in experiment [4]; 0.08 µM in [5]; 1.71 µM in [6]. Moreover, the 50% growth inhibitory concentration (GI50) was 10.5 µM in experiment [7] (setting [23]); 0.0593 µM in [8] (setting [23]); 10.1 µM in experiment [9] (setting [23]); 24.2 µM in experiment [10] (setting [23]); 11.3 µM in [11] (setting [23]); 13.9 µM in experiment [12] (setting [23]). Moreover, the concentration for 50% growth inhibition (GI50) in [13] (setting [23]) was 0.113 µM; in experiment [14] (setting [23]), 0.838 µM; in [15] (setting [23]) it was 13.9 µM; in experiment [16] (setting [23]) it was 0.0819 µM; in [17] (setting [23]) it was 12.8 µM; in [18] (setting [23]), 0.139 µM. The 50% growth inhibitory concentration (GI50) in experiment [19] (setting [23]) is 0.46 µM; in experiment [20], > 9.52 µM. The Sensitivity class in [7] and in experiment [9] was > 1000 nM throughout. Further, the Class in experiment [8] was < 1000 nM. Moreover, the IC50 was > 1 µM in experiment [10] (read-out: Class); > 1 µM in experiment [11] (read-out: Class); > 1 µM in experiment [12] (read-out: Class); < 1 µM in experiment [13] (read-out: Class); < 1 µM in [14] (read-out: Class); > 1 µM in experiment [15] (read-out: Class). Besides, the IC50 in experiment [16] (read-out: Class) is < 1 µM; in [17] (read-out: Class) it was > 1 µM; in experiment [18] (read-out: Class), < 1 µM; in [19] (read-out: Class), < 1 µM.
Regarding `CN1CCN(CCOc2cc(OC3CCOCC3)c3c(Nc4c(Cl)ccc5c4OCO5)ncnc3c2)CC1` [saracatinib, N-(5-Chloro-1,3-benzodioxol-4-yl)-7-[2-(4-methyl-1-piperazinyl)ethoxy]-5-[(tetrahydro-2H-pyran-4-yl)oxy]-4-quinazolinamine], in experiment [21], the “number of tested kinases submicromolar” value is recorded as 13 of 23 tested submicromolar. For the same compound, in experiment [22], the Kd worked out at 6.66 µM.

Values taken from patent US9328386B2, “Markers for susceptibility to an inhibitor of an Src-family kinase” (Evotec (München) GmbH, priority 2011, dated 2016).
